What was measured:
HvNTR2 [1] = target: T1, HvNTR2 (Hordeum vulgare, UniProt A9LN30); experiment: X-ray crystal structure, […] A; format: binding; details: crystals pH 3.5, 0.1 M citrate; one FAD per subunit in FAD domain, tightly bound
T1 construct: gene NTR2; recombinant, E. coli Rosetta (DE3); FAD domain 1-126 and 255-331, NADPH domain 127-254; model residues 6-323 (A), 5-323 (B); homodimer

HvNTR2 [2] = target: T1, HvNTR2; experiment: bleaching of yellow HvNTR2 crystals (FAD reduction); format: biochemical; details: 10 mM NADPH, 30 min, in crystals; NADPH not seen in the structure

T1 sequence (A9LN30 1-331): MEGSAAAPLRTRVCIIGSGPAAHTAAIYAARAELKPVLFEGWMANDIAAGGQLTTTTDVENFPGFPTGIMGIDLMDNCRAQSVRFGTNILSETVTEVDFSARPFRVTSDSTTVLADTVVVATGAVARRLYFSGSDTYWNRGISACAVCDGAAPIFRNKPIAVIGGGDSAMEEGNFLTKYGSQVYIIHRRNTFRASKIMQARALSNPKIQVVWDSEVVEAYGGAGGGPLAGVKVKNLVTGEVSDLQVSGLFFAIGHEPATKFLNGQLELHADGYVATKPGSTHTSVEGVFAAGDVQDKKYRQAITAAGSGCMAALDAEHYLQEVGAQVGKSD

| SMILES | X-ray crystal structure, 2.6 A (HvNTR2 [1]) | bleaching of yellow HvNTR2 crystals (FAD reduction) (HvNTR2 [2]) |
| --- | --- | --- |
| Cc1cc2nc3c(=O)[nH]c(=O)nc-3n(C[C@H](O)[C@H](O)[C@H](O)COP(=O)(O)OP(=O)(O)OC[C@H]3O[C@@H](n4cnc5c(N)ncnc54)[C@H](O)[C@@H]3O)c2cc1C [FAD] | One FAD molecule with well defined electron density | – |
| NC(=O)C1=CN([C@@H]2O[C@H](COP(=O)(O)OP(=O)(O)OC[C@H]3O[C@@H](n4cnc5c(N)ncnc54)[C@H](OP(=O)(O)O)[C@@H]3O)[C@@H](O)[C@H]2O)C=CC1 [NADPH] | – | FAD can still be reduced by NADPH as judged from the bleaching |

— publication PMC2733882, “Structure of Hordeum vulgare NADPH-dependent thioredoxin reductase 2. Unwinding the reaction mechanism” (Acta Crystallographica Section D: Biological Crystallography, 2009)
